Where a SMILES comes first, the peptide text is derived from it. [ ]: non-standard residue; d: D form. pT = C[C@@H](OP(=O)(O)O)[C@H](N)C(=O)O
Columns and labels:
[1] = molecular target: T1, human PLK1-PBD (371-594) (Homo sapiens, UniProt P53350); assay: Fluorescence polarisation binding assay for the PBD of PLK1; conditions: FITC-labelled peptide 10 nM, protein 0 to 4 μM
T1 construct: The human PLK1-PBD (371-594) was amplified by PCR; GST (N, cleaved yes); made in house; host or cells: E. coli Rosetta2(DE3)pLysS
T1 sequence (P53350 371-594): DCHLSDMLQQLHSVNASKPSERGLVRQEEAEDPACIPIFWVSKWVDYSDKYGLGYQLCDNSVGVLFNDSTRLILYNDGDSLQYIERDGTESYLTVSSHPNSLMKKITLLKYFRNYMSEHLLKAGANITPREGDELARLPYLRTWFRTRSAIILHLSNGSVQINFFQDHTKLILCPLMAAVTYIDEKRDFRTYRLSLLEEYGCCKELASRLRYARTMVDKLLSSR
Experimental: The human PLK1-PBD (371-594) was amplified by PCR and cloned into the pGEX6p-1 vector using the EcoRI and XhoI restriction enzyme sites. The protein was overexpressed in E. coli Rosetta2(DE3)pLysS cells (Novagen). The cells were grown at 37° C. in 3 L of Terrific Broth medium to an OD600 of 0.6, and recombinant protein expression was induced with 0.1 mM isopropyl β-D-thiogalactopyranoside (IPTG) at 20° C. The cells were further grown at 20° C. for 20 hr after IPTG induction. The purification methods were similar to methods that have been previously reported (Cheng, K. Y., et al. The crystal structure of the human polo-like kinase-1 polo box domain and its phospho-peptide complex. EMBO J 22, 5757-68 (2003)). Briefly, the cell pellet was resuspended in ice-cold HBS buffer (10 mM HEPES pH 7.5, 200 mM NaCl, 3.4 mM EDTA, 0.01% (v/v) 1-thioglycerol) and homogenized by sonication. After sonication, the cell debris was centrifuged and supernatant was applied to GST Sepharose resin (GE Healthcare). After extensive washing with HBS buffer, protein was eluted with HBS buffer supplemented with 20 mM reduced glutathione. PreScission protease (GE Healthcare) was added to eluted protein in order to remove the fused GST and the cleavage product was diluted and re-passed through GST Sepharose column. The flow through was collected and applied to Superdex 75 prep grade column (GE Healthcare) equilibrated with HBS buffer. The purified protein was concentrated to 6 mg/ml and used for fluorescence polarization binding assay or crystal screening.
For the fluorescence polarisation binding assay, FITC-labelled 1010pT (GVLSpTLI) or 1010T (GVLSTLI) (SEQ ID NO: 8) peptide was mixed with purified PBD and incubated in a buffer containing 10 mM HEPES (pH7.5), 50 mM NaCl, 1 mM EDTA, 1 mM DTT, and 0.0025% (v/v) Tween 20. The final protein concentrations ranged from 0 to 4 μM, and the final peptide concentration was 10 nM. Fluorescence polarisation was analysed 30 min after mixing the peptide and proteins in a 96-well plate using a VERSAmax microplate reader (Molecular Devices). Binding curves were fitted using GraphPad Prism software (GraphPad Software).
The human PLK1-PBD (371-594), PLK2-PBD (451-685) and PLK3-PBD (412-646) genes were cloned into pGEX6p-1 vector using EcoRI/XhoI restriction sites. […] The purified PLK-PBD proteins were concentrated and used for the fluorescence polarization binding assay.
For the fluorescence polarization binding assay, each fluorescein isothiocyanate (FITC)-labeled 1010pT (GVLSpTLI), 1010T (GVLSTLI), 1010E (GVLSELI), or 1010D (GVLSDLI) peptide was mixed with purified PLK1, PLK2 or PLK3 and incubated in a buffer containing 10 mM HEPES (pH 7.5), 50 mM NaCl, 1 mM EDTA, 1 mM DTT and 0.0025% (v/v) Tween 20. […]

[2] = molecular target: T2, human PLK2-PBD (451-685) (Homo sapiens, UniProt Q9NYY3); assay: Fluorescence polarization binding assay, PLK2-PBD; conditions: FITC-labelled peptide 10 nM, protein 0 to 4 uM
T2 construct: PLK2-PBD (451-685); GST (N, cleaved yes); made in house; host or cells: E. coli Rosetta2 (DE3) pLysS
T2 sequence (Q9NYY3 451-685): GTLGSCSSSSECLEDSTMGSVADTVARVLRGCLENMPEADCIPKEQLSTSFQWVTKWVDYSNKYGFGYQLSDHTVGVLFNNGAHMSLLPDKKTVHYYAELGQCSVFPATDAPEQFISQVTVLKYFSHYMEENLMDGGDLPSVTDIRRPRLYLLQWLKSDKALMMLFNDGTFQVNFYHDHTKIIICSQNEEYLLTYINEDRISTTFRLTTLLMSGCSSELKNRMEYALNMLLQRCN
Experimental: (§1) The human PLK1-PBD (371-594), PLK2-PBD (451-685) and PLK3-PBD (412-646) genes were cloned into pGEX6p-1 vector using EcoRI/XhoI restriction sites. Proteins were over expressed in E. coli strain Rosetta2 (DE3) pLysS. The cells were grown in Terrific Broth medium to an OD600 of 0.6 at 37° C. and recombinant proteins were induced with 0.1 mM isopropyl b-D-thiogalactopyranoside (IPTG) at 25° C. for PLK2 and 20° C. for PLK1 and PLK3, respectively. The cells were further grown at 25° C. (PLK2) or 20° C. (PLK1 and PLK3) for 20 h after IPTG induction. Each cell pellet was lysed with each PLK Binding buffer as described below. […] The purified PLK-PBD proteins were concentrated and used for the fluorescence polarization binding assay.
(§2) For the fluorescence polarization binding assay, each fluorescein isothiocyanate (FITC)-labeled 1010pT (GVLSpTLI), 1010T (GVLSTLI), 1010E (GVLSELI), or 1010D (GVLSDLI) peptide was mixed with purified PLK1, PLK2 or PLK3 and incubated in a buffer containing 10 mM HEPES (pH 7.5), 50 mM NaCl, 1 mM EDTA, 1 mM DTT and 0.0025% (v/v) Tween 20. […] Fluorescence polarization was analyzed 30 min after mixing the peptide and proteins in a 96-well plate using an INFINTE 200 PRO (Tecan). […]

[3] = molecular target: T3, human PLK3-PBD (412-646) (Homo sapiens, UniProt Q9H4B4); assay: Fluorescence polarization binding assay, PLK3-PBD; conditions: FITC-labelled peptide 10 nM, protein 0 to 4 uM
T3 construct: PLK3-PBD (412-646); GST (N, cleaved yes); made in house; host or cells: E. coli Rosetta2 (DE3) pLysS
T3 sequence (Q9H4B4 412-646): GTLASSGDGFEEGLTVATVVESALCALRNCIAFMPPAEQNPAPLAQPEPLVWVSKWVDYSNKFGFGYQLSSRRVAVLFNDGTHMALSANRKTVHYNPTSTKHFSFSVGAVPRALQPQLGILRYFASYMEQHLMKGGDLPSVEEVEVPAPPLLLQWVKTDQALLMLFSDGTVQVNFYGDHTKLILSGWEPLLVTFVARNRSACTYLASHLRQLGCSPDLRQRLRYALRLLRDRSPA
Experimental: as §1, §2

[4] = test system: C. elegans; assay: Embryonic mitosis and development after nocodazole treatment of worms; type: in vivo; conditions: nocodazole alone, without capg-2 RNAi
Experimental: C. elegans were cultivated on NGM plates at 20° C. as a standard culture method (Brenner, S. Genetics 77, 71-94 (1974)). The capg-2 RNAi clone was obtained from Dr. J. Ahringer's bacteria-feeding RNAi library, which was a kind gift from Dr. J. Lee (Seoul National University). The wild-type N2 strain was used for measuring embryo lethality when capg-2 RNAi was treated with nocodazole. RW10006 (HIS-72::GFP), XA3501 (GFP::HIS-11 and GFP::TBB-2), JG479 (NPP-1::GFP, mCherry::HIS-58 and GFP::TBB-2) and SA17(GFP::PLK-1) were used to determine the effects of capg-2 knockdown on mitosis. JG479 was generated by crossing XA3501 and OCF3 (NPP-1::GFP and mCherry::HIS-58). HIS-72 is histone 3, and TBB-2 is β-tubulin. Both HIS-11 and HIS-58 are histone 2B proteins (www.wormbase.org). Most strains were provided by the CGC, which is funded by the NIH Office of Research Infrastructure Programs (P40 OD010440). For capg-2 RNA interference, L4 worms were transferred to the RNAi plate, and the F1 embryos were observed. The HT115 E. coli strain, which contains the empty RNAi vector (L4440), was used as the control. […] The worms were removed after laying eggs for 12 hours, and the dead embryos were counted the next day. […]

| binding to PLK1-PBD (in words) [1] | binding to PLK1-PBD (in words) ([1]; listed as GVLS-pT-LI) | binding to PLK2-PBD (in words) [2] | binding to PLK3-PBD (in words) [3] | SMILES | effect on mitosis of embryos [4] |
| --- | --- | --- | --- | --- | --- |
| specifically binds | interacts strongly | did not bind | did not bind | CC[C@H](C)[C@H](NC(=O)[C@H](CC(C)C)NC(=O)[C@@H](NC(=O)[C@H](CO)NC(=O)[C@H](CC(C)C)NC(=O)[C@@H](NC(=O)CN)C(C)C)[C@@H](C)OP(=O)(O)O)C(N)=O [1010pT, GVLSpTLI] (H-GVLS[pT]LI-NH2; N-terminus and C-terminus assumed) |  |
|  |  |  |  | COC(=O)Nc1nc2ccc(C(=O)c3cccs3)cc2[nH]1 [Nocodazole, nocodazole] | did not directly affect mitosis |

— US9562084B2, “Peptides derived from NCAPG2 and their use” (NATIONAL CANCER CENTER, priority 2014, dated 2017)
